Assay results: patent US11622961B2, “Combination therapies for treating cancer” (TESARO, INC., priority 2017, dated 2023)

What was measured:
[1] = test system: MDA-MB436 breast carcinoma cell line; assay: MDA-MB436 HuNOG-EXL mice treated with niraparib and BLZ945: tumor volume; type: in vivo; settings: 200 mg/kg BLZ945 5 day on and 2 day off plus 80 mg/kg niraparib tosylate once daily, oral; FIG. 6A, 6B (day 26)
Description: This example describes the effects of treatment with an agent that inhibits PARP together with an agent that regulates activity in the tumor microenvironment in a mouse model of breast cancer. HuNOG-EXL mice inoculated with MDA-MB436 breast carcinoma cell line were orally administered: i) 80 mg/kg of niraparib tosylate once daily; ii) 200 mg/kg BLZ945 (an anti-CSF-1R that binds to CSF1R and inhibits CSF1R-mediated signal transduction pathways in tumor associated macrophages) on a 5 day on and 2 day off schedule; or iii) 80 mg/kg of niraparib tosylate and 200 mg/kg BLZ945 with the same dosing schedule as the single agent groups. Control mice were administered an isotype control antibody twice weekly via intraperitoneal injection.
Tumor volumes were recorded twice in a week with a gap of 2-3 days in between two measurements until tumor volume reached 600-1000 mm^3 in the control mice.

[2] = crystalline solid; cited from earlier work
[3] = test system: primary Murine skin cancer model mSK6005; settings: 50 mg/kg orally once daily for 21 days, compared to vehicle treated mice
Description: This example describes the effects of treatment with an agent that inhibits PARP signaling on tumor microenvironment in a mouse model of colorectal cancer. 50 mg/kg of niraparib or vehicle (0.5% methylcellulose) was orally administered once daily for 21 days to C57BL/6 mice inoculated with primary Murine skin cancer model mSK6005 fragment developed from Apc^Min/J heterozygous background. Formalin-fixed, paraffin-embedded (FFPE) blocks were prepared from tumor samples collected from the mice. Immunohistochemistry (IHC) staining was performed on FFPE samples to assess expression of various markers for immune response in the tumor samples. Five fields in each staining, without necrosis, were randomly selected and imaged at 20× magnification.
All the images were analyzed with Image J software. For CD4, CD8, and FoxP3 IHC, positive cells were counted and the average of 5 fields positive cell numbers was taken as the score value of each case. For Iba1 IHC, the percentage of Iba1 positive expression area or mean gray was measured and taken as the score value of each case. The percentages of tumor cells at different intensity levels were evaluated according to the calculation below. Total Score=(% at 0)×0+(% at 1)×1+(% at 2)×2+(% at 3)×3

[4] = test system: MDA-MB-436
Description: FIG. 5A depicts percentage of Ki67-positive CD4 and CD8 positive cells among total CD3 population in control or niraparib treated mice as assessed by flow cytometry.
FIG. 5B depicts tumor volume in MDA-MB-436 huNOG-EXL mice treated with niraparib or control.

[5] = molecular target: T1, CTLA-4 (Homo sapiens, UniProt P16410); settings: biopsy samples taken after tremelimumab treatment; cited from earlier work
T1 construct: host or cells: metastatic melanoma patients (endogenous CTLA-4)
T1 sequence (P16410 36-223): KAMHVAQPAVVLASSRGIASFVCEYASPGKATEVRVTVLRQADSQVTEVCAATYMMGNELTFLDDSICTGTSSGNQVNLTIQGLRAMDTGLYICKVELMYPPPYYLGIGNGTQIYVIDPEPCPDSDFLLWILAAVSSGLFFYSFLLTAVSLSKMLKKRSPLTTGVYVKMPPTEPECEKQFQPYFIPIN

Compound: CNC(=O)c1cc(Oc2ccc3nc(N[C@@H]4CCCC[C@H]4O)sc3c2)ccn1 [BLZ945]
- anti-tumor activity of the combination (tumor volume) [1]: enhances anti-tumor activity of niraparib

Compound: Cc1ccc(S(=O)(=O)O)cc1.NC(=O)c1cccc2cn(-c3ccc([C@@H]4CCCNC4)cc3)nc12.O [Niraparib tosylate monohydrate, (3 S)-3-[4-{7-(aminocarbonyl)-2H-indazol-2-yl}phenyl]piperidine tosylate monohydrate]
- hygroscopicity of drug substance [2]: non-hygroscopic

Compound: NC(=O)c1cccc2cn(-c3ccc([C@@H]4CCCNC4)cc3)nc12 [niraparib, (3S)-3-[4-{7-(aminocarbonyl)-2H-indazol-2-yl}phenyl]piperidine]
- expression of CD4 in tumor samples (IHC) [3]: Increased expression
- expression of CD8 in tumor samples (IHC) [3]: Increased expression
- expression of FoxP3 in tumor samples (IHC) [3]: Increased expression
- expression of Iba1 in tumor samples (IHC) [3]: Increased expression
- tumor growth ([4]; 35 mg/kg QD×5/week (FIG. 5B)): reduction of tumor growth
- percentage of CD8+ cells ([4]; 35 mg/kg QD×5/week, flow cytometry (FIG. 5A)): increased percentage of CD8+ cells

Compound: tremelimumab: anti-CTLA-4 antibody
- intratumoral infiltration by CD8+ cells [5]: highly significant increase
